{"source": "ChEMBL document CHEMBL1201862", "about": "“PubChem BioAssay data set” (2004)", "target": "Envelope glycoprotein gp160 (Human immunodeficiency virus 1, UniProt Q6QLK5)", "sequence (Q6QLK5 whole entry, the tested form may be a part)": "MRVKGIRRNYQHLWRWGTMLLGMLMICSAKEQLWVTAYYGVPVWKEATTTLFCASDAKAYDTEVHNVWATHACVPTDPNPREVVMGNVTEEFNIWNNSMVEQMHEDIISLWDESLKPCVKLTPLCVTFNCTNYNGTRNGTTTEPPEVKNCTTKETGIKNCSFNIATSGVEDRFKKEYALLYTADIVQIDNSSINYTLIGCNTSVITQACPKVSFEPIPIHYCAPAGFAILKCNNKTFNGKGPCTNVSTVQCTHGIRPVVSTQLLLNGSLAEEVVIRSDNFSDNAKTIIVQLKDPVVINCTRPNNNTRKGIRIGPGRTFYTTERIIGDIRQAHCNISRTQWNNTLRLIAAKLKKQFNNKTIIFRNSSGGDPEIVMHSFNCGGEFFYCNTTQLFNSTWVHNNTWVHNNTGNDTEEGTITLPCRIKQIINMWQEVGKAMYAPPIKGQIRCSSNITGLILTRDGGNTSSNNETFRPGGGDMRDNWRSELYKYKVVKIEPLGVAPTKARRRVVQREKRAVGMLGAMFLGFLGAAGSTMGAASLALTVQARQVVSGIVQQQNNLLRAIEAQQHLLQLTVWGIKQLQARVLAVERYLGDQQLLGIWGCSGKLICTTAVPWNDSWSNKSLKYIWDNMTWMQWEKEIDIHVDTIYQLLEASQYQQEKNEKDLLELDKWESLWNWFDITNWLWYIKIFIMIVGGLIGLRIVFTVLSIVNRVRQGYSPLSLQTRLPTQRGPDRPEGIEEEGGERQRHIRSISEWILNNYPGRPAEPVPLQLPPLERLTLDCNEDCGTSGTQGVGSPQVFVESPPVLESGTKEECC", "assay": "inhibitors of HIV fusion peptide binding, primary screen, biochemical, uHTS, fluorescence dequenching (AID 1986)", "note": "The source made the active and inactive calls. No stated cut-off is given here; in the data, actives have a measured IC50 and inactives only a lower limit."}
{"compound": "CCCCN1C(=O)/C(=C/C=C/c2ccco2)C(=O)NC1=S", "values": [{"measurement": "IC50", "result": "5.14 µM (active)"}]}
{"compound": "CC(/C=C1\\SC(=S)N(CCCC(=O)Nc2ccc(C(=O)O)cc2)C1=O)=C\\c1ccccc1", "values": [{"measurement": "IC50", "result": "17.2 µM (active)"}]}
